We go through 11 molecules from US20210395210A1, “INHIBITION OF BACTERIAL CHAPERONIN SYSTEMS” (THE TRUSTEES OF INDIANA UNIVERSITY, priority 2018, published 2021).

The target of one test is T1, native MDH (Sus scrofa, UniProt P00346).
T1 construct: soluble pig heart MDH from Roche, product #10127248001; purchased Roche 10127248001; host or cells: pig heart
T1 sequence (P00346 25-338): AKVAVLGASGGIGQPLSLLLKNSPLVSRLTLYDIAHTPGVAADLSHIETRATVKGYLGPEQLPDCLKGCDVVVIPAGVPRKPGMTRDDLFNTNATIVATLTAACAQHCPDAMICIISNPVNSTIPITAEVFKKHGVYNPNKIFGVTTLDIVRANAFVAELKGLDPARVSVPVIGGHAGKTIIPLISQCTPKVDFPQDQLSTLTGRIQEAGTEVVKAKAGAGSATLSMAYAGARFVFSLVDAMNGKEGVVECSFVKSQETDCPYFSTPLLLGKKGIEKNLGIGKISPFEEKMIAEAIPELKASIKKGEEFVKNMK
Put plainly: Counter-screen for inhibition of native MDH enzymatic activity. The class given is biochemical, pig. Particulars: for inhibition of native MDH enzymatic activity (in words): false-positive counter-screen. How it is done:
Reagent Preparations & Assay Protocol: This assay was performed as described above for the GroEL/ES-dMDH refolding assay; however, the assay protocol differed in the sequence of compound addition to the assay plates. The refolding reactions were allowed to proceed for 45 min at 37° C. in the absence of test compounds (complete refolding of MDH occurs), then quenched with the EDTA stock. Compounds were then pin-transferred into the plates after the EDTA quenching step; thus, compounds effects are only possible by inhibiting the fully-refolded MDH reporter substrate. […] A340 nm measurements were recorded at 0.5 minutes (start point) and at successive time points until the amount of NADH consumed reached ˜90% (end point, generally between 20-35 minutes). Compounds were tested in 8-point, 3-fold dilution series (62.5 μM to 29 nM during the reporter reaction) in clear, flat-bottom 384-well microtiter plates. DMSO was used as a negative control, and previously discovered native MDH inhibitors were used as positive controls. […] Results presented represent the averages of IC50 values obtained from at least quadriplicate (duplicate of duplicate) replicates.

The test system of test [1] is Methicillin resistant S. aureus (MRSA) (ATCC BAA-44). Put plainly: Bacterial proliferation assay, MRSA. The class given is cell-based, Staphylococcus aureus. Particulars: Staphylococcus aureus. An excerpt: (§1) Bacterial Strains: Enterococcus faecium—(Orla-Jensen) Schleifer and Kilpper-Balz strain NCTC 7171 (ATCC 19434); Drug sensitive Staphylococcus aureus—Rosenbranch strain Seattle 1945 (ATCC 25923); Methicillin resistant S. aureus (MRSA)—Rosenbach strain HPV107 (ATCC BAA-44); Klebsiella Pneumonia—(Schroeter) Trevisan strain NCTC 9633 (ATCC 13883); Acinetobacter baumannii—Bouvet and Grimont strain 2208 (ATCC 19606); Pseudomonas aeruginosa—(Schroeter) Migula strain NCTC 10332 (ATCC 10145); Enterobacter cloacae—E. cloacae, subsp. cloacae (Jordan) Hormaeche and Edwards strain CDC 442-68 (ATCC 13047).
(§2) Growth Media: All bacteria were grown in Brain Heart Infusion (BHI) broth/agar (Becton, Dickinson and Company). All liquid cultures were grown in BHI media supplemented with 25 mg/L Ca^2+ and 12.5 mg/L Mg^2+ to mimic free physiological concentrations of these cations. A 10 mg/mL Ca^2+ stock solution was prepared by dissolving 3.68 g of CaCl2.2H2O in 100 mL of deionized water, and a 10 mg/mL Mg^2+ stock solution was prepared by dissolving 8.36 g of MgCl2.6H2O in 100 mL deionized water. Both stock solutions were filter-sterilized using 0.2 μm pore size cellulose-acetate filters. 2.5 mL of the sterile 10 mg/mL Ca^2+ stock and 1.25 mL of the sterile 10 mg/mL Mg^2+ stock solutions were added per 1 L of autoclaved BHI medium to obtain 25 mg/L Ca^2+ and 12.5 mg/L Mg^2+ ions, respectively.
(§3) General Assay Protocol: Stock bacterial cultures were streaked onto BHI agar plates and grown overnight at 37° C. Fresh aliquots of broth were inoculated with single bacterial colonies and the cultures were grown overnight at 37° C. with shaking (240 rpm) in cation adjusted BHI media. The following morning, the overnight cultures were sub-cultured (1:5 dilution) into fresh aliquots of cation adjusted BHI media and grown at 37° C. for 1-2 hours with shaking. After 2 h, cultures were diluted into fresh media to achieve final OD600 readings of 0.017. Aliquots of these diluted cultures (30 μL) were added to clear, flat-bottom, 384-well polystyrene plates that were stamped with 0.5 μL of test compounds in 20 μL media. […] Plates were sealed with “Breathe Easy” oxygen permeable membranes (Diversified Biotech) and left to incubate at 37° C. without shaking (stagnant assay). OD600 nm readings were taken at either 6-8 h (S. aureus, MRSA, K. pneumonia, E. cloacae, and P. aeruginosa) or 24 h (E. faecium and A. baumannii). A second set of baseline control plates were prepared analogously, but without any bacteria added, to correct for possible compound absorbance and/or precipitation. Plates were then read at 600 nm using a Molecular Devices SpectraMax Plus384 microplate reader. […] Results presented represent the averages of EC50 values obtained from at quadriplicate (duplicate of duplicate) replicates.

Test [2] relates to Klebsiella Pneumonia (ATCC 13883). The test is described as follows: Bacterial proliferation assay, K. pneumoniae. The class given is cell-based.
From the text: as §1, §2, §3

The test system of test [3] is Acinetobacter baumannii (ATCC 19606). The test is described as follows: Bacterial proliferation assay, A. baumannii. The class given is cell-based.
From the text: as §1, §2, §3

Where [4] appears, read: log of IC50 (μM scale), with standard deviation, read-out: log(IC50) Native MDH Reporter (converted).
Setting [5] is: read-out: Biochemical Assay IC50 Native MDH Reporter.
Setting [6] is: read-out: Bacterial Proliferation EC50 S. aureus Resistant.
[7] abbreviates: read-out: log(EC50) Bacterial Proliferation Assay S. aureus Resistant (converted).
Where [8] appears, read: ATCC13883, read-out: Bacterial Proliferation EC50 K. pneumoniae.
Where [9] appears, read: ATCC13883, read-out: log(EC50) Bacterial Proliferation Assay K. pneumoniae (converted).
[10] abbreviates: ATCC19606, 24 h, read-out: Bacterial Proliferation EC50 A. baumannii.
Where [11] appears, read: ATCC19606, read-out: log(EC50) Bacterial Proliferation Assay A. baumannii (converted).
Setting [12] is: MRSA, log of EC50 (μM scale), with standard deviation, read-out: log(EC50) Bacterial Proliferation Assay S. aureus Resistant (converted).
[13] abbreviates: ATCC13883, OD600 at 6-8 h, read-out: Bacterial Proliferation EC50 K. pneumoniae.
Where [14] appears, read: ATCC13883, log of EC50 (μM scale), with standard deviation, read-out: log(EC50) Bacterial Proliferation Assay K. pneumoniae (converted).
The mark [15] stands for this setting: ATCC19606, OD600 at 24 h, read-out: Bacterial Proliferation EC50 A. baumannii.
Setting [16] is: ATCC19606, log of EC50 (μM scale), with standard deviation, read-out: log(EC50) Bacterial Proliferation Assay A. baumannii (converted).
Where [17] appears, read: MRSA, OD600 at 6-8 h, read-out: Bacterial Proliferation EC50 S. aureus Resistant.

Where two headings read alike, the source gives them in different places. A value given as a limit tells only on which side of the number the result lay.

Regarding `O=C(Nc1ccc(Sc2nc3ccccc3s2)cc1)c1cccc(Br)c1O` [Compound 6, N-(4-(Benzo[d]thiazol-2-ylthio)phenyl)-3-bromo-2-hydroxybenzamide], the “inhibition of native MDH enzymatic activity (in words)” value (“inhibition” for short) against native MDH was “inactive against the reporter enzymes”. Besides, the IC50 at native MDH (setting [4]) is above 63.1 µM; on native MDH (setting [5]), above 63 µM. The EC50 in test [1] (setting [6]) is 1.1 µM; in test [1] (setting [7]) it was 1.1 µM; in test [2] (setting [8]) it was above 100 µM; in test [2] (setting [9]), above 100 µM; in test [3] (setting [10]), 12 µM; in test [3] (setting [11]), 11.5 µM.
Consider `O=C(Nc1ccc(Sc2nc3ccccc3s2)cc1)c1cccc(Br)c1` [Compound 21, N-(4-(Benzo[d]thiazol-2-ylthio)phenyl)-3-bromobenzamide], for which the results for the IC50 on native MDH (setting [4]) and at native MDH (setting [5]) were above 63.1 µM and above 63 µM, respectively. In addition, the EC50 in test [1] (setting [12]), in test [2] (setting [13]), in test [2] (setting [14]), in test [3] (setting [15]) and in test [3] (setting [16]) was above 100 µM each time.
With `O=C(Nc1ccc(Sc2nc3ccccc3s2)cc1)c1ccccc1O` [Compound 8, N-(4-(Benzo[d]thiazol-2-ylthio)phenyl)-2-hydroxybenzamide], the IC50 at native MDH (setting [4]) was above 63.1 µM; on native MDH (setting [5]), above 63 µM. The EC50 in test [1] (setting [17]) was 0.41 µM; in test [1] (setting [12]), 0.407 µM; in test [2] (setting [13]) it was above 100 µM; in test [2] (setting [14]) it was above 100 µM; in test [3] (setting [15]), above 100 µM; in test [3] (setting [16]), above 100 µM.
Turning to `O=C(Nc1cccc(Cl)c1)c1ccccc1O` [Compound 12, N-(3-Chlorophenyl)-2-hydroxybenzamide], the IC50 was above 63.1 µM on native MDH (setting [4]) and above 63 µM on native MDH (setting [5]). In addition, the EC50 is 4.2 µM in test [1] (setting [17]); 4.17 µM in test [1] (setting [12]); above 100 µM in test [2] (setting [13]); above 100 µM in test [2] (setting [14]); above 100 µM in test [3] (setting [15]); above 100 µM in test [3] (setting [16]).
Regarding `O=C(Nc1cccc(Cl)c1)c1cc(Br)cc(Br)c1` [Compound 23, 3,5-Dibromo-N-(3-chlorophenyl)benzamide], the IC50 on native MDH (setting [4]) was above 63.1 µM; at native MDH (setting [5]) it was above 63 µM. Moreover, the EC50 is 12 µM in test [1] (setting [17]); 11.7 µM in test [1] (setting [12]); above 100 µM in test [2] (setting [13]); above 100 µM in test [2] (setting [14]); above 100 µM in test [3] (setting [15]); above 100 µM in test [3] (setting [16]).
Regarding `O=C(Nc1ccc(Sc2nc3ccccc3s2)c(Cl)c1)c1cc(Br)ccc1O` [Compound 3, N-(4-(Benzo[d]thiazol-2-ylthio)-3-chlorophenyl)-5-bromo-2-hydroxybenzamide], at native MDH, the “inhibition” value was “inactive against the reporter enzymes”. Also, the figures for the IC50 on native MDH (setting [4]) and at native MDH (setting [5]) were above 63.1 µM and above 63 µM, respectively. Moreover, the EC50 in test [1] (setting [6]) is 0.17 µM; in test [1] (setting [7]), 0.17 µM; in test [2] (setting [8]), above 100 µM; in test [2] (setting [9]), above 100 µM; in test [3] (setting [10]) it was above 100 µM; in test [3] (setting [11]), above 100 µM.
Turning to `O=C(Nc1cccc(Cl)c1)c1cccc(Br)c1O` [Compound 10, 3-Bromo-N-(3-chlorophenyl)-2-hydroxybenzamide], on native MDH (setting [4]), the IC50 is above 63.1 µM. For the same molecule, the EC50 in test [1] (setting [17]) is 2 µM; in test [1] (setting [12]) it was 2 µM; in test [2] (setting [13]) it was above 100 µM; in test [2] (setting [14]), above 100 µM; in test [3] (setting [15]), above 100 µM; in test [3] (setting [16]), above 100 µM.
Regarding `O=C(Nc1ccc(Sc2nc3ccccc3s2)c(Cl)c1)c1ccccc1` [Compound 19, N-(4-(Benzo[d]thiazol-2-ylthio)-3-chlorophenyl)benzamide], the IC50 at native MDH (setting [4]) is above 63.1 µM; at native MDH (setting [5]), above 63 µM. The EC50 in test [1] (setting [17]), in test [1] (setting [12]), in test [2] (setting [13]), in test [2] (setting [14]), in test [3] (setting [15]) and in test [3] (setting [16]) was above 100 µM each time.
Turning to `O=C(Nc1ccc(Sc2nc3ccccc3s2)c(Cl)c1)c1cccc(Br)c1O` [Compound 2, N-(4-(Benzo[d]thiazol-2-ylthio)-3-chlorophenyl)-3-bromo-2-hydroxybenzamide], the “inhibition” value on native MDH is “inactive against the reporter enzymes”. Further, the values for the IC50 on native MDH (setting [4]) and on native MDH (setting [5]) were above 63.1 µM and above 63 µM, respectively. The EC50 in test [1] (setting [6]) is 0.71 µM; in test [1] (setting [7]), 0.708 µM; in test [2] (setting [8]), above 100 µM; in test [2] (setting [9]) it was above 100 µM; in test [3] (setting [10]), 2.9 µM; in test [3] (setting [11]), 2.88 µM.
Turning to `O=C(Nc1ccc(Sc2nc3ccccc3s2)c(Cl)c1)c1cc(Br)cc(Br)c1O` [Compound 1, N-(4-(Benzo[d]thiazol-2-ylthio)-3-chlorophenyl)-3,5-dibromo-2-hydroxybenzamide], the “inhibition” value against native MDH is “inhibit native MDH”. In addition, the “log(IC50) Native MDH Reporter” value on native MDH (log of IC50 (μM scale), with standard deviation) is 0.83 ± 0.25. Further, the EC50 is 0.55 µM in test [1] (setting [6]); 0.55 µM in test [1] (setting [7]); above 100 µM in test [2] (setting [8]); above 100 µM in test [2] (setting [9]); 66 µM in test [3] (setting [10]); 66.1 µM in test [3] (setting [11]).
Turning to `O=C(Nc1ccccc1)c1cccc(Br)c1O` [Compound 14, 3-Bromo-2-hydroxy-N-phenylbenzamide], the IC50 on native MDH (setting [4]) was above 63.1 µM; on native MDH (setting [5]), above 63 µM. Moreover, the EC50 is 10 µM in test [1] (setting [17]); 10 ± 1.7 µM in test [1] (setting [12]); above 100 µM in test [2] (setting [13]); above 100 µM in test [2] (setting [14]); above 100 µM in test [3] (setting [15]); above 100 µM in test [3] (setting [16]).

As a reminder, the IC50 is the concentration at which inhibition is half-maximal.
